{"source": "ChEMBL document CHEMBL1201862", "about": "“PubChem BioAssay data set” (2004)", "format_in_all_cases": "functional", "key": {"[1]": {"target": "Phosphorylase b kinase gamma catalytic chain, liver/testis isoform (Homo sapiens, UniProt P15735)"}, "[2]": {"target": "RAC-gamma serine/threonine-protein kinase (Homo sapiens, UniProt Q9Y243)"}, "[3]": {"target": "Protein kinase C delta type (Homo sapiens, UniProt Q05655)", "sequence (Q05655 whole entry)": "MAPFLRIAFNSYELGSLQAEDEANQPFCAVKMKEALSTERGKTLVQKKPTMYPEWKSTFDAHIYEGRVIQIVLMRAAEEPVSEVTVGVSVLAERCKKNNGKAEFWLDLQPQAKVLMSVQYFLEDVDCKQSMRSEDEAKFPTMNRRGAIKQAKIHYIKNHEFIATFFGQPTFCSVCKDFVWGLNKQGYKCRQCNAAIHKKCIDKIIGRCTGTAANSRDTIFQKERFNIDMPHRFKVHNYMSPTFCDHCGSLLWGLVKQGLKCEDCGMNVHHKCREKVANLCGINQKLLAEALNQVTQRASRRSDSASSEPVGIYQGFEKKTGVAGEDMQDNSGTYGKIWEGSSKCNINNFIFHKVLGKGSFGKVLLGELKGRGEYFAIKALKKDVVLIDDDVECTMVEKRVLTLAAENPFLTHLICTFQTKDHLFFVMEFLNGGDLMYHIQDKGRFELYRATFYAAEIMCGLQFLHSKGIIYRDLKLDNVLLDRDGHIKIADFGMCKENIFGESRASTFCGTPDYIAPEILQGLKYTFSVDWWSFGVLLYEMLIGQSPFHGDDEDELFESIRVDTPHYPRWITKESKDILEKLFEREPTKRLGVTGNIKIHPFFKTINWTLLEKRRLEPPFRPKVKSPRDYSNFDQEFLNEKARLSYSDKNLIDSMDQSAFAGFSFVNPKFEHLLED"}, "[4]": {"target": "ALK tyrosine kinase receptor (Homo sapiens, UniProt Q9UM73)"}, "[5]": {"target": "Serine/threonine-protein kinase PLK4 (Homo sapiens, UniProt O00444)", "sequence (O00444 whole entry)": "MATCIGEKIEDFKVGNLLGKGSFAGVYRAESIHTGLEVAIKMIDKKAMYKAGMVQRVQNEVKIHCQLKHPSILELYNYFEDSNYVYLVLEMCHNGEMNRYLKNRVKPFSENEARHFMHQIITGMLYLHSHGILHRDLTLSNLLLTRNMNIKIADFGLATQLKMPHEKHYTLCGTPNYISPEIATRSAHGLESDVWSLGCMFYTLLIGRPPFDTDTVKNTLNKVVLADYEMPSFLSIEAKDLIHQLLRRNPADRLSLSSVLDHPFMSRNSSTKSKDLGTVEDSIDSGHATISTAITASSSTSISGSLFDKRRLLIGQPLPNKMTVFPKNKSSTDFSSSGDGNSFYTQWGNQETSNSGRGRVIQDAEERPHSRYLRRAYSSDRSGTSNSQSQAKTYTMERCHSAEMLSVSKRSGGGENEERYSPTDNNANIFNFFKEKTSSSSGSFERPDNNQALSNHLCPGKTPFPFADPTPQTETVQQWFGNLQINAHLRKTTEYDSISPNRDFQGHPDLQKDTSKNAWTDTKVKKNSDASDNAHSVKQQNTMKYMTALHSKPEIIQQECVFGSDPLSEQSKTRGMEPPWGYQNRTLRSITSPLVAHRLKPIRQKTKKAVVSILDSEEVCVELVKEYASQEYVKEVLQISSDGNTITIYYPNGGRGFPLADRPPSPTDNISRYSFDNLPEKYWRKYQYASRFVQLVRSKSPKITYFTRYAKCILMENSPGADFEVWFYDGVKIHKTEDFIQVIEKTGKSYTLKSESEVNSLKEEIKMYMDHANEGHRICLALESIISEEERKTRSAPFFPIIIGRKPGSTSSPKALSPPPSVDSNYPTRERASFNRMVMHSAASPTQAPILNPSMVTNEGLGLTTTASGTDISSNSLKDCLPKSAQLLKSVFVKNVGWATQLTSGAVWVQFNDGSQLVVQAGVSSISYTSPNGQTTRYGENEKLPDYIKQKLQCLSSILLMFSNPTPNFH"}, "[6]": {"target": "Tyrosine-protein kinase SYK (Homo sapiens, UniProt P43405)"}, "[7]": {"target": "Serine/threonine-protein kinase D3 (Homo sapiens, UniProt O94806)", "sequence (O94806 whole entry)": "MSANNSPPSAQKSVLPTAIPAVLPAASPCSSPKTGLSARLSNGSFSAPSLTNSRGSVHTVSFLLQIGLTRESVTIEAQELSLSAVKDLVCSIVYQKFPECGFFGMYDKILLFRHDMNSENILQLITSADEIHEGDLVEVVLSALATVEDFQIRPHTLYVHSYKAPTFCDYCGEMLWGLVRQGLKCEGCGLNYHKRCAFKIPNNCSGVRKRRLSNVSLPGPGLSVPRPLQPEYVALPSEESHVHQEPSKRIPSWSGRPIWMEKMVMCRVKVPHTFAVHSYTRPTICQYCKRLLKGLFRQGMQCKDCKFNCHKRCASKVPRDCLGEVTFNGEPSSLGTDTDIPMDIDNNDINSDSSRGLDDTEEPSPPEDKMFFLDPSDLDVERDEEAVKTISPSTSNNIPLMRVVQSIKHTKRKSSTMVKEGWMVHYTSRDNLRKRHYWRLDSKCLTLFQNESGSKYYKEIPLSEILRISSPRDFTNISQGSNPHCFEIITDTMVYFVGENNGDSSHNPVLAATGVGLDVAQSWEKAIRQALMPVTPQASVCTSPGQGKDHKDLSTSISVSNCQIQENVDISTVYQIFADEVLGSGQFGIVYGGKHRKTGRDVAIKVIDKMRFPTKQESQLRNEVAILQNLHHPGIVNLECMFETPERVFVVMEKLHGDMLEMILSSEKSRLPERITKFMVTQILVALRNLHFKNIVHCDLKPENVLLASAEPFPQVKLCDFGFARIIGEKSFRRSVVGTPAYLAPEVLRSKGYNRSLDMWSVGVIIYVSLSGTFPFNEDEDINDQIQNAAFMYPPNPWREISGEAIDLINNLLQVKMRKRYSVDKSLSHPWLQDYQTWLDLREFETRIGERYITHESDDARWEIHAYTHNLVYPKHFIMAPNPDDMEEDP"}, "[8]": {"target": "Serine/threonine-protein kinase 17A (Homo sapiens, UniProt Q9UEE5)"}, "[9]": {"target": "Activin receptor type-1 (Homo sapiens, UniProt Q04771)", "sequence (Q04771 whole entry)": "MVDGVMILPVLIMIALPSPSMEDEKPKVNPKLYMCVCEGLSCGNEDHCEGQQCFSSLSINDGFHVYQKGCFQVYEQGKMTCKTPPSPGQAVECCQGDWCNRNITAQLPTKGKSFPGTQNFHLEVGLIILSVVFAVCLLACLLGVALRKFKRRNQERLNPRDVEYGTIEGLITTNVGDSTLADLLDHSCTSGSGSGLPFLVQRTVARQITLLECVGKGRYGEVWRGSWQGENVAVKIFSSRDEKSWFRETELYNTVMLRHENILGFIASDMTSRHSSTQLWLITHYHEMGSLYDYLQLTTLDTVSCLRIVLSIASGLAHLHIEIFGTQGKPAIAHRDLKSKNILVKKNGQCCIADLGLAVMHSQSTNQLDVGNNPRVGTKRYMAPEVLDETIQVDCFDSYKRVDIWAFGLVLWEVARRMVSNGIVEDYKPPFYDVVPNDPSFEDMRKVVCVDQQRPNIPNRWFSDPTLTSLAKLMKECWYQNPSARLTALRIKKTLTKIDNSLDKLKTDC", "assay": "Navigating the Kinome. Panel member name: ACVR1"}, "[10]": {"target": "Cyclin-dependent kinase 2 (Homo sapiens, UniProt P24941)"}, "[11]": {"target": "Mast/stem cell growth factor receptor Kit (Homo sapiens, UniProt P10721)"}, "[12]": {"target": "Serine/threonine-protein kinase PAK 1 (Homo sapiens, UniProt Q13153)"}, "[13]": {"target": "Calcium/calmodulin-dependent protein kinase type II subunit delta (Homo sapiens, UniProt Q13557)"}, "[14]": {"target": "Fibroblast growth factor receptor 1 (Homo sapiens, UniProt P11362)"}, "[15]": {"target": "Casein kinase I isoform alpha (Homo sapiens, UniProt P48729)"}, "[16]": {"target": "Tyrosine-protein kinase JAK3 (Homo sapiens, UniProt P52333)"}, "[17]": {"target": "Casein kinase I isoform gamma-1 (Homo sapiens, UniProt Q9HCP0)", "sequence (Q9HCP0 whole entry, canonical isoform)": "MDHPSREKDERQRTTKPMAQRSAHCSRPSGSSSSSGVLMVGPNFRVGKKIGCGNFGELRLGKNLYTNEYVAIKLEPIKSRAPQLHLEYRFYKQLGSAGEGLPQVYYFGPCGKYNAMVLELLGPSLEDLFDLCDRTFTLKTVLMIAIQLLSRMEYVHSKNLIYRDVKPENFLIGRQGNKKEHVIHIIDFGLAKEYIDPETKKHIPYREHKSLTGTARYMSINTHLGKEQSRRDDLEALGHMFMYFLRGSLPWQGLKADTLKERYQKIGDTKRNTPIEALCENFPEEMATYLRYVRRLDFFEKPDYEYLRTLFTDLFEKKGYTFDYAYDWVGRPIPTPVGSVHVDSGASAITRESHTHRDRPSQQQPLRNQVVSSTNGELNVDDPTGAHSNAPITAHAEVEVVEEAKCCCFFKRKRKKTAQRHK"}, "[18]": {"target": "Serine/threonine-protein kinase N2 (Homo sapiens, UniProt Q16513)"}, "[19]": {"target": "Serine/threonine-protein kinase TAO1 (Homo sapiens, UniProt Q7L7X3)"}, "[20]": {"target": "Insulin receptor (Homo sapiens, UniProt P06213)"}, "[21]": {"target": "Mitogen-activated protein kinase 13 (Homo sapiens, UniProt O15264)"}, "[22]": {"target": "Mitogen-activated protein kinase kinase kinase 20 (Homo sapiens, UniProt Q9NYL2)"}, "[23]": {"target": "Serine/threonine-protein kinase pim-3 (Homo sapiens, UniProt Q86V86)"}, "[24]": {"target": "Non-receptor tyrosine-protein kinase TYK2 (Homo sapiens, UniProt P29597)"}, "[25]": {"target": "Mitogen-activated protein kinase kinase kinase kinase 2 (Homo sapiens, UniProt Q12851)"}, "[26]": {"target": "Dual specificity tyrosine-phosphorylation-regulated kinase 3 (Homo sapiens, UniProt O43781)"}, "[27]": {"target": "MAP kinase-activated protein kinase 3 (Homo sapiens, UniProt Q16644)"}, "[28]": {"target": "Serine/threonine-protein kinase Chk1 (Homo sapiens, UniProt O14757)"}, "[29]": {"target": "Casein kinase I isoform delta (Homo sapiens, UniProt P48730)"}, "[30]": {"target": "G protein-coupled receptor kinase 5 (Homo sapiens, UniProt P34947)", "assay": "Navigating the Kinome. Panel member name: GPRK5"}, "[31]": {"target": "Cyclin-dependent kinase 5 (Homo sapiens, UniProt Q00535)"}, "[32]": {"target": "Mitogen-activated protein kinase 1 (Homo sapiens, UniProt P28482)"}, "[33]": {"target": "Serine/threonine-protein kinase Nek4 (Homo sapiens, UniProt P51957)"}, "[34]": {"target": "Dual specificity tyrosine-phosphorylation-regulated kinase 4 (Homo sapiens, UniProt Q9NR20)"}, "[35]": {"target": "Aurora kinase B (Homo sapiens, UniProt Q96GD4)"}, "[36]": {"target": "RAC-alpha serine/threonine-protein kinase (Homo sapiens, UniProt P31749)"}, "[37]": {"target": "Vascular endothelial growth factor receptor 3 (Homo sapiens, UniProt P35916)"}, "[38]": {"target": "Rho-associated protein kinase 1 (Homo sapiens, UniProt Q13464)"}, "[39]": {"target": "Calcium/calmodulin-dependent protein kinase type 1 (Homo sapiens, UniProt Q14012)"}, "[40]": {"target": "Cyclin-dependent kinase 1 (Homo sapiens, UniProt P06493)", "sequence (P06493 whole entry)": "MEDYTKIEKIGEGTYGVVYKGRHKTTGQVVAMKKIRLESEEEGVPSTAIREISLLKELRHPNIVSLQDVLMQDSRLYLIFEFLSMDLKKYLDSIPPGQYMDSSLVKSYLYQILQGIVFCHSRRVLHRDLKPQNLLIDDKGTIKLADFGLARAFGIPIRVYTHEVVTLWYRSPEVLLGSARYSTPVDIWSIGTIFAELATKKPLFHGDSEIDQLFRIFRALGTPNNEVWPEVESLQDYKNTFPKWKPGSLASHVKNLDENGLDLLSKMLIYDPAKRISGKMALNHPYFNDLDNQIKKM"}, "[41]": {"target": "Cyclin-dependent kinase 7 (Homo sapiens, UniProt P50613)"}, "[42]": {"target": "Serine/threonine-protein kinase PLK1 (Homo sapiens, UniProt P53350)"}, "[43]": {"target": "Glycogen synthase kinase-3 beta (Homo sapiens, UniProt P49841)", "sequence (P49841 whole entry)": "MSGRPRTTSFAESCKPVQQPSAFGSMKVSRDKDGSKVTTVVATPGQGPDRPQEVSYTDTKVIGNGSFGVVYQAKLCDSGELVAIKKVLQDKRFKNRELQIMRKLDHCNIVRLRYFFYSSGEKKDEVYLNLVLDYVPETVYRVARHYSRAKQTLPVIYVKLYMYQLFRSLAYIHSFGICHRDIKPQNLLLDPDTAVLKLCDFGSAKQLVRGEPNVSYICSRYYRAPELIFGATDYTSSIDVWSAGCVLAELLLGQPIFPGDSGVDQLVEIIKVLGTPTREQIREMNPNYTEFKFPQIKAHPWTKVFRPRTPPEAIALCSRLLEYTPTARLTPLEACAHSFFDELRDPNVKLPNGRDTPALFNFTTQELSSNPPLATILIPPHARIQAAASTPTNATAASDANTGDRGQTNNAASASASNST"}, "[44]": {"target": "cAMP-dependent protein kinase catalytic subunit alpha (Homo sapiens, UniProt P17612)"}, "[45]": {"target": "Lymphokine-activated killer T-cell-originated protein kinase (Homo sapiens, UniProt Q96KB5)", "sequence (Q96KB5 whole entry)": "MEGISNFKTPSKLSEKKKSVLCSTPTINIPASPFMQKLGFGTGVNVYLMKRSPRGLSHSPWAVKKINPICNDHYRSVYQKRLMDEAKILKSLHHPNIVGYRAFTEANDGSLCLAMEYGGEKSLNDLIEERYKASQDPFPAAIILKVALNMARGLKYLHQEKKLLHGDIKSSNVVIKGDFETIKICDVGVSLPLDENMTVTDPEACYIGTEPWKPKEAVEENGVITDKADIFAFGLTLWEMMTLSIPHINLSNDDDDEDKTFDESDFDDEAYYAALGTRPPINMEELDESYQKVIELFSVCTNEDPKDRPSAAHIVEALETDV"}, "[46]": {"target": "Serine/threonine-protein kinase MRCK alpha (Homo sapiens, UniProt Q5VT25)"}, "[47]": {"target": "Calcium/calmodulin-dependent protein kinase type II subunit alpha (Homo sapiens, UniProt Q9UQM7)", "sequence (Q9UQM7 whole entry)": "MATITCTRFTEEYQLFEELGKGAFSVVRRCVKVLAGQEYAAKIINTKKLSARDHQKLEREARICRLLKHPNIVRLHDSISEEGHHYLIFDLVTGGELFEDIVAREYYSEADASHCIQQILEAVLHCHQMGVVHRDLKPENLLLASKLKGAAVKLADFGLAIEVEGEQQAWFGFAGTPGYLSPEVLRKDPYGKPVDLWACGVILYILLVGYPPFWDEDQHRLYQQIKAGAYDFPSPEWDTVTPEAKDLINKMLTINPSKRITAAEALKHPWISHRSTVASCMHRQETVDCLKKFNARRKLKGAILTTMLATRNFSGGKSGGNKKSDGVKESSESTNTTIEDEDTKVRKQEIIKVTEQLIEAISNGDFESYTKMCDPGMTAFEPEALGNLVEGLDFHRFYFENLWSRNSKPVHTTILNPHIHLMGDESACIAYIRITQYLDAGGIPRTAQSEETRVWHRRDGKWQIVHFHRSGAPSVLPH", "assay": "Navigating the Kinome. Panel member name: CAMK2A"}}, "note": "Calls of active or inactive are those of the source.", "data": [{"smiles": "NNc1cc(N2CCOCC2)nc(OCCc2ccccn2)n1", "values": [{"measurement": "Ki", "setting": "[1]", "result": "> 5.01 µM (inactive)"}, {"measurement": "Ki", "setting": "[2]", "result": "> 10 µM (inactive)"}, {"measurement": "Ki", "setting": "[3]", "result": "> 7.94 µM (inactive)"}, {"measurement": "Ki", "setting": "[4]", "result": "> 6.31 µM (inactive)"}, {"measurement": "Ki", "setting": "[5]", "result": "> 3.98 µM (inactive)"}, {"measurement": "Ki", "setting": "[6]", "result": "0.398 µM (active)"}, {"measurement": "Ki", "setting": "[7]", "result": "> 6.31 µM (inactive)"}, {"measurement": "Ki", "setting": "[8]", "result": "> 3.98 µM (inactive)"}, {"measurement": "Ki", "setting": "[9]", "result": "> 3.98 µM (inactive)"}, {"measurement": "Ki", "setting": "[10]", "result": "> 7.94 µM (inactive)"}, {"measurement": "Ki", "setting": "[11]", "result": "> 3.98 µM (inactive)"}, {"measurement": "Ki", "setting": "[12]", "result": "> 10 µM (inactive)"}, {"measurement": "Ki", "setting": "[13]", "result": "> 6.31 µM (inactive)"}, {"measurement": "Ki", "setting": "[14]", "result": "> 3.98 µM (inactive)"}, {"measurement": "Ki", "setting": "[15]", "result": "> 5.01 µM (inactive)"}, {"measurement": "Ki", "setting": "[16]", "result": "> 5.01 µM (inactive)"}, {"measurement": "Ki", "setting": "[17]", "result": "> 6.31 µM (inactive)"}, {"measurement": "Ki", "setting": "[18]", "result": "> 7.94 µM (inactive)"}, {"measurement": "Ki", "setting": "[19]", "result": "> 5.01 µM (inactive)"}, {"measurement": "Ki", "setting": "[20]", "result": "> 5.01 µM (inactive)"}, {"measurement": "Ki", "setting": "[21]", "result": "> 7.94 µM (inactive)"}, {"measurement": "Ki", "setting": "[22]", "result": "> 7.94 µM (inactive)"}, {"measurement": "Ki", "setting": "[23]", "result": "> 7.94 µM (inactive)"}, {"measurement": "Ki", "setting": "[24]", "result": "1.58 µM (active)"}, {"measurement": "Ki", "setting": "[25]", "result": "> 5.01 µM (inactive)"}, {"measurement": "Ki", "setting": "[26]", "result": "> 6.31 µM (inactive)"}, {"measurement": "Ki", "setting": "[27]", "result": "> 10 µM (inactive)"}, {"measurement": "Ki", "setting": "[28]", "result": "> 7.94 µM (inactive)"}, {"measurement": "Ki", "setting": "[29]", "result": "> 7.94 µM (inactive)"}, {"measurement": "Ki", "setting": "[30]", "result": "> 3.98 µM (inactive)"}, {"measurement": "Ki", "setting": "[31]", "result": "> 6.31 µM (inactive)"}, {"measurement": "Ki", "setting": "[32]", "result": "> 7.94 µM (inactive)"}, {"measurement": "Ki", "setting": "[33]", "result": "> 6.31 µM (inactive)"}, {"measurement": "Ki", "setting": "[34]", "result": "> 7.94 µM (inactive)"}, {"measurement": "Ki", "setting": "[35]", "result": "> 6.31 µM (inactive)"}, {"measurement": "Ki", "setting": "[36]", "result": "> 7.94 µM (inactive)"}, {"measurement": "Ki", "setting": "[37]", "result": "> 6.31 µM (inactive)"}, {"measurement": "Ki", "setting": "[38]", "result": "> 6.31 µM (inactive)"}, {"measurement": "Ki", "setting": "[39]", "result": "> 5.01 µM (inactive)"}, {"measurement": "Ki", "setting": "[40]", "result": "> 7.94 µM (inactive)"}, {"measurement": "Ki", "setting": "[41]", "result": "> 3.98 µM (inactive)"}, {"measurement": "Ki", "setting": "[42]", "result": "> 7.94 µM (inactive)"}, {"measurement": "Ki", "setting": "[43]", "result": "> 5.01 µM (inactive)"}, {"measurement": "Ki", "setting": "[44]", "result": "> 3.98 µM (inactive)"}, {"measurement": "Ki", "setting": "[45]", "result": "> 10 µM (inactive)"}, {"measurement": "Ki", "setting": "[46]", "result": "> 10 µM (inactive)"}, {"measurement": "Ki", "setting": "[47]", "result": "> 7.94 µM (inactive)"}]}]}
